Read-outs that look alike come from different tables or passages of the source.
Assays:
B16F10 cells = assay: 72-hour cell viability assay (Alamar Blue), B16F10; type: cell-based
Description: (§1) Cell Culture and reagents. All cell lines were grown in a 37° C., 5% CO2, humidified environment, in media containing 1% penicillin/streptomycin. Cell culture conditions are as follows: MDCK cells transfected with MDR1 (or ABCB1) were obtained from the Netherlands Cancer Institute (Amsterdam, The Netherlands) and maintained in DMEM with 10% fetal bovine serum (FBS, Gemini). Traditional cell lines A375, CHL-1, B16F10, and U118MG were grown in DMEM with 10% FBS, SK-MEL-28, U87 and T98G in EMEM with 10% FBS, AM-38 in EMEM with 20% HI-FBS (Gibco), HT29 in McCoy's 5A with 10% FBS, HCT116 in RPMI with 10% FBS. Compounds were dissolved in DMSO (1% final concentration, Sigma-Aldrich) for cell culture studies.
(§2) Cell viability assays. Cells were harvested, seeded in a 96-well plate and allowed to adhere overnight. Compound was added to each well in DMSO (1% final concentration). Cells were incubated for 72 hours before viability was assessed by the Alamar Blue Assay. Raptinal ([…]) was used as a dead control.

HT29 cells = assay: 72-hour cell viability assay (Alamar Blue), HT29; type: cell-based; conditions: colon
Description: as §1, §2

U87 cells = assay: 72-hour cell viability assay (Alamar Blue), U87; type: cell-based; conditions: WT BRAF
Description: as §1, §2

SK-MEL-28 cells = assay: 72-hour cell viability assay (Alamar Blue), SK-MEL-28; type: cell-based; conditions: melanoma
Description: as §1, §2

P-gp [1] = molecular target: T1, P-gp (Mus musculus, UniProt P21447); assay: P-gp in vivo assay (elacridar pretreatment); conditions: for enhancement of BBB penetrance by P-gp inhibition: elacridar 2.5 mg/kg, compound 25 mg/kg IV
T1 construct: tissue Charles River (CD-1 mice); host or cells: living CD-1 mice; blood-brain barrier / brain
T1 sequence (P21447 whole entry): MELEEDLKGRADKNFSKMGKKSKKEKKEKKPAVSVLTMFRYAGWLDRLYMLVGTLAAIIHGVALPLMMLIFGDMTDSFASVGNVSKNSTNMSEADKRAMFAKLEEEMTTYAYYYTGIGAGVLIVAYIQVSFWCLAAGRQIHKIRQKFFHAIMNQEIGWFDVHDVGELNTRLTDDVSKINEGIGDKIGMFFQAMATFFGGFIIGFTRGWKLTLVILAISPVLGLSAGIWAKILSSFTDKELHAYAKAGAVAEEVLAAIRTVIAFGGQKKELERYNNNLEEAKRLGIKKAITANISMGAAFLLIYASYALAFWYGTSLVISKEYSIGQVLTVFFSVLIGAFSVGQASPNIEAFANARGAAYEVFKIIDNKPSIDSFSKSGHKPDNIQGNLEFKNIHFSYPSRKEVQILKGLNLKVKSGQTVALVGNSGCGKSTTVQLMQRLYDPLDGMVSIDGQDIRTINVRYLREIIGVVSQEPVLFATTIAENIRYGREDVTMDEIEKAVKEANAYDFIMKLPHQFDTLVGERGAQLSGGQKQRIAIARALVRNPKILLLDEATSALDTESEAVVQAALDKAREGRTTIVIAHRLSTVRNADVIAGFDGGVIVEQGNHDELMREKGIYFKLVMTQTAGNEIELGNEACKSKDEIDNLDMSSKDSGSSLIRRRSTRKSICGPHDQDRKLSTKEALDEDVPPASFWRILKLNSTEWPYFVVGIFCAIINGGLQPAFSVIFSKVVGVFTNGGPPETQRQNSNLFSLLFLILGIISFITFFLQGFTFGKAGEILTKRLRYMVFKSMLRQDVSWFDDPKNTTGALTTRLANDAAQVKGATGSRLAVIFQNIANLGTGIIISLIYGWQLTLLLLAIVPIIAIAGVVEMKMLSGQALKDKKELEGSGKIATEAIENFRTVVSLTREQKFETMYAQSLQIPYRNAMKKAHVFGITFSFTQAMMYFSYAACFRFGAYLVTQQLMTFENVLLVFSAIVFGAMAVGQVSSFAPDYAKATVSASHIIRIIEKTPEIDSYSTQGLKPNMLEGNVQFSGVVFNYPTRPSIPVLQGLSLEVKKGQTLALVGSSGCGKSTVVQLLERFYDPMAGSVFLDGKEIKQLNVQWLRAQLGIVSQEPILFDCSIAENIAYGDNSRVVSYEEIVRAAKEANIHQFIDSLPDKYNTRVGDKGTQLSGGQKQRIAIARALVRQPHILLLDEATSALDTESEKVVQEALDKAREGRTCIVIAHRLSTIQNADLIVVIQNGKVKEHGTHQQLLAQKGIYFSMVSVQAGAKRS
Description: Actionability in animals. […] At each time point, blood and brain were harvested, and compound concentrations in each compartment were quantified.
In this experiment, brain-to-blood ratios of P-gp substrates […] with the P-gp inhibitor compared to vehicle, while those of non-substrates will remain the same.
Blood-brain barrier penetrance P-gp in vivo assays. […] CD-1 mice were purchased from Charles River and acclimated for 4-7 days before use. Mice were administered elacridar or its vehicle at 2.5 mg/kg via lateral tail vein injection. Thirty-minutes post injection, mice were then treated with compounds at 25 mg/kg intravenously now in the other tail vein. At each time point, mice were sacrificed and blood was collected by lacerating the right auricle with iris scissors. An 18-gauge angiocatheter was inserted through the left ventricle, and all residual circulatory volume was removed by perfusing 0.9% saline solution via an analog peristaltic pump. Brains were harvested from the cranial vault and flash frozen. Blood samples were centrifuged at 13,000 ref for 10 minutes and the supernatant serum was stored at −80° C. until analysis. Brain samples were homogenized in ice-cold methanol and centrifuged first at 2000 ref for three minutes and then 13,000 ref for ten minutes and supernatant and tissue debris were separated and stored at −80° C. The resultant supernatant and serum were analyzed by LC-MS/MS to determine compound concentrations. […] All compounds were administered at 5 mL/kg.

P-gp [2] = molecular target: T2, P-gp (Homo sapiens, UniProt P08183); assay: MDR1-MDCK P-gp transwell bidirectional transport assay; type: in vitro ADME; conditions: for Papp A→B at 90 min, 10 µM / Papp B→A at 90 min, 10 µM / efflux ratio at 90 min, 10 µM / Papp at 90 min, 10 µM: dog; for Papp A→B at 90 min, 10 µM / Papp B→A at 90 min, 10 µM / efflux ratio at 90 min, 10 µM: MDCK-MDR1, MDR1-MDCK; for efflux ratio at 90 min, 10 µM: read-out: ER (efflux ratio) (converted); for Papp at 90 min, 10 µM: MDCK-MDR1, range of Papp A-B to B-A, read-out: cell culture permeabilities; for ER (efflux ratio) / Papp A-B / Papp B-A: MDR1-MDCK; for Papp A→B at 90 min, 10 µM / Papp B→A at 90 min, 10 µM / efflux ratio at 90 min, 10 µM / ER (efflux ratio) / Papp A-B / Papp B-A: 10 μM, 90 min
T2 construct: host or cells: MDCK (MDR1-MDCK)
T2 sequence (P08183 whole entry): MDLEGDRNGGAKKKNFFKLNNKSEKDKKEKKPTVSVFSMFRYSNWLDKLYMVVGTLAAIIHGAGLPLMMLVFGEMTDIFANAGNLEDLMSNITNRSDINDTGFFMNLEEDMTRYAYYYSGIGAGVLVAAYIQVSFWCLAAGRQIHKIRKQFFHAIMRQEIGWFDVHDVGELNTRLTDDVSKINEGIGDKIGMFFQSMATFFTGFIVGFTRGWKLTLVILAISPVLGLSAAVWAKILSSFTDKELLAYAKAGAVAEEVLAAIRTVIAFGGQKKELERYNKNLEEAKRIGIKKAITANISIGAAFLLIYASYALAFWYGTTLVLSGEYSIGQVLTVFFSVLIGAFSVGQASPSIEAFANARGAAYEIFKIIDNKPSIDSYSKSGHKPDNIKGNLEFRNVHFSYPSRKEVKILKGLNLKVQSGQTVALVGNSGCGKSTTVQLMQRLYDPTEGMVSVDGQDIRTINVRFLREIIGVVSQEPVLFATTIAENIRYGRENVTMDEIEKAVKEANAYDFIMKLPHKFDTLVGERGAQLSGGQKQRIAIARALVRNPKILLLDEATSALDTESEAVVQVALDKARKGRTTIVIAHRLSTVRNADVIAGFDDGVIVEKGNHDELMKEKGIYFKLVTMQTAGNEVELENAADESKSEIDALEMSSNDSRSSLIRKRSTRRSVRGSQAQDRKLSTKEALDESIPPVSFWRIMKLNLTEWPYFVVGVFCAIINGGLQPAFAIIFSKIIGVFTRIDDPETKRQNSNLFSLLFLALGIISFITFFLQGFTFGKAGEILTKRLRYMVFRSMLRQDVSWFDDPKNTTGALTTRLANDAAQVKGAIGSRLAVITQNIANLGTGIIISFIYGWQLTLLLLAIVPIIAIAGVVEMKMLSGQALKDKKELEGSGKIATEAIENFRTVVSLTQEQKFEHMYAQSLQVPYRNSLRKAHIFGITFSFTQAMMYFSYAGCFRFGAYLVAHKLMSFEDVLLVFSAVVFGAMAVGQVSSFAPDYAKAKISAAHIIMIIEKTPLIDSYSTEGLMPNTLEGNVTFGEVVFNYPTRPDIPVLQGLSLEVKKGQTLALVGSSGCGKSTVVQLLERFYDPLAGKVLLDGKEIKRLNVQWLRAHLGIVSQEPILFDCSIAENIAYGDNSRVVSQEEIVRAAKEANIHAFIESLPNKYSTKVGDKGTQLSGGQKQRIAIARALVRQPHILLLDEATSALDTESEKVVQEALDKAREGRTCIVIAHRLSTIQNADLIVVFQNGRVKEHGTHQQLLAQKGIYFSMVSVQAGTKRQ
Description: A novel compound collection composed of complex and diverse compounds derived from natural products, termed “Complexity-to-Diversity Collection” was employed. […] The CtD compounds were evaluated by the efflux pump and their permeability using the P-gp transwell assay using adapted and optimized known protocols. Compound transport across epithelial cells overexpressing P-gp from basolateral-to-apical and apical-to-basolateral directions were quantified to calculate permeability and efflux ratio.
P-gp transwell bidirectional transport assays. Unless noted otherwise, the transport assay was performed in triplicate in batches of 16 or 24 test compounds, with each batch containing quinidine as a substrate control and propranolol as a non-substrate control. MDR1-MDCK cells were plated at a density of 300,000 cells/cm^2 onto 96-well Falcon™ Multiwell Insert System with 1 µm pore polycarbonate filters with angled-bottom receiver plates (Coming) and were fed with the cell growth medium on day 2.
The donor solution was prepared by adding 1 mM DMSO stocks of compounds to make the final concentration […], and the receiver solution was prepared with equivalent volume of DMSO to make 1% DMSO in final assay chamber volumes.
After 80-96 hours since seeding, the growth media on both sides was aspirated. To the transwell plate (apical side), 50 μL of receiver and donor solutions prepared on a 96-well plate were added, and it was placed on top of a separate angled-bottom 96-well plate (basolateral side) containing 260 μL of receiver and donor solutions.
Following 90 minutes of incubation at 37° C. with shaking at 90 rpm, 20 μL aliquot of samples were taken from both the donor and receiver chambers, and the apical and basolateral sides. Aliquots of 4 test compounds were pooled for each category: apical-donor, apical-receiver, basolateral-donor, basolateral-receiver. To measure CO and mass balance, initial donor samples from both apical and basolateral side were set aside from the assay plate. Acetonitrile twice the volume of pooled samples was added and mixed thoroughly, and precipitated proteins were removed by centrifugation at 20,000 r.c.f for 10 minutes.
To ascertain the MDCK monolayer integrity, the solution on apical side contained 100 µM Lucifer Yellow (Millipore-Sigma). After 90 minutes of compound transport, Lucifer Yellow concentration in the basal well was measured using SpectraMax M3 (Molecular Devices) set to an excitation wavelength of 430 nm and an emission wavelength of 540 nm.
Samples were analyzed with the 5500 QTRAP LC/MS/MS system (AB Sciex) with a 1200 series HPLC system (Agilent Technologies) including a degasser, an autosampler, and a binary pump. The liquid chromatography separation was performed on an Agilent SB-Aq column (4.6×50 mm, 5 μm) (Agilent Technologies) with mobile phase A (0.1% formic acid in water) and mobile phase B (0.1% formic acid in acetonitrile). The flow rate was 0.3 ml min^−1. The linear gradient was optimized for each compound. The autosampler was set at 5° C. The injection volume was 15 μL. Mass spectra were acquired with both positive electrospray ionization at the ion spray voltage of 5,500 V and negative electrospray ionization at the ion spray voltage of −4,500 V. The source temperature was 450° C. The curtain gas, ion source gas 1, and ion source gas 2 were 33, 50 and 65, respectively. Multiple reaction monitoring was used to quantify metabolites.
Efflux data calculations.

AM-38 cells = assay: 72-hour cell viability assay (Alamar Blue), AM-38; type: cell-based; conditions: glioma
Description: as §1, §2

[3] = Mus musculus, B16-F10, WT BRAF, melanoma, read-out: B16F10 (WT) IC50
[4] = Mus musculus, B16-F10, WT BRAF, read-out: B16F10 IC50
[5] = Homo sapiens, HT-29, V600E BRAF
[6] = Homo sapiens, U-87 MG, read-out: U87 IC50
[7] = Homo sapiens, glioma, read-out: U87 (WT) IC50
[8] = Homo sapiens, SK-MEL-28, V600E BRAF
[9] = Homo sapiens, AM-38, V600E BRAF

Structure (SMILES)	IC50 (B16F10 cells; [3])	IC50 (B16F10 cells; [4])	IC50 (HT29 cells; [5])	IC50 (U87 cells; [6])	IC50 (U87 cells; [7])	IC50 (SK-MEL-28 cells; [8])	Papp A→B at 90 min, 10 µM (P-gp [2])	Papp B→A at 90 min, 10 µM (P-gp [2])	efflux ratio at 90 min, 10 µM (P-gp [2])	Papp at 90 min, 10 µM (P-gp [2])	IC50 (AM-38 cells; [9])	enhancement of BBB penetrance by P-gp inhibition (P-gp [1]; 15 min)	enhancement of BBB penetrance by P-gp inhibition (P-gp [1]; 60 min)	other results
CCCS(=O)(=O)Nc1cc(Cl)cc(-c2nc(C(C)(C)C)sc2-c2ccnc(N)n2)c1F [6-261, N-(3-(5-(2-aminopyrimidin-4-yl)-2-(tert-butyl)thiazol-4-yl)-5-chloro-2-fluorophenyl)propane-1-sulfonamide]	> 1000 nM	> 1000 nM	1.67 ± 0.36 nM	> 1000 nM	> 1000 nM	2.35 ± 0.13 nM	4.92 ± 0.806 ×10⁻⁶ cm/s	6.42 ± 2.45 ×10⁻⁶ cm/s	1.4	4.9 to 6.4 ×10⁻⁶ cm/s	8.5 ± 1.2 nM	–	–	effect of P-gp inhibitor (elacridar) co-treatment on brain exposure (P-gp [1]; result in words): did display potentiation
CCCS(=O)(=O)Nc1cc(Cl)cc(-c2nc(C(C)(C)C)sc2-c2ccnc(NCCCCC(=O)O)n2)c1F [6-263, 5-((4-(2-(tert-butyl)-4-(5-chloro-2-fluoro-3-(propylsulfonamido)phenyl)thiazol-5-yl)pyrimidin-2-yl)amino)pentanoic acid]	> 10000 nM	> 10000 nM	21.4 ± 4.21 nM	> 10000 nM	> 10000 nM	22.5 ± 1.2 nM	2.15 ± 0.07 ×10⁻⁶ cm/s	2.49 ± 0.435 ×10⁻⁶ cm/s	1.17	2.2 to 2.5 ×10⁻⁶ cm/s	93.2 ± 14.1 nM	1.5 fold	2.5 fold	–
CC(C)(C)c1nc(-c2cccc(NS(=O)(=O)c3c(F)cccc3F)c2F)c(-c2ccnc(N)n2)s1 [Dabrafenib, reference compound]	–	–	–	–	–	–	–	–	–	–	–	4.3 fold	5.8 fold	IC50 (B16F10 cells; WT BRAF, read-out: B16F10 IC50): > 1000 nM; IC50 (HT29 cells; V600E BRAF): 4.74 ± 0.84 nM; IC50 (U87 cells; read-out: U87 IC50): > 1000 nM; IC50 (SK-MEL-28 cells; V600E BRAF): 4.76 ± 0.42 nM; ER (efflux ratio) (P-gp [2]): 17.94 ± 6.97; Papp A-B (P-gp [2]): 1.26 ± 0.672 ×10⁻⁶ cm/s; Papp B-A (P-gp [2]): 13.2 ± 1.63 ×10⁻⁶ cm/s; Papp A-B (P-gp [2]; listed as 6-74): 1.257 ± 0.672 ×10⁻⁶ cm/s; Papp B-A (P-gp [2]; listed as 6-74): 13.192 ± 1.632 ×10⁻⁶ cm/s; ER (efflux ratio) (P-gp [2]; listed as dabrafenib): 17.9; IC50 (AM-38 cells; V600E BRAF): 6.84 ± 0.84 nM
